Read-outs that look alike come from different tables or passages of the source.

Assay [1] has as its system SW480 and RKO colon cancer cell lines. As to conditions: estimated from the literature, dose used with ISC-4 in FIG. 2, cited from earlier work.
For another assay, the system named is RKO. Kind of assay: Cell viability assay of ISC-4 combined with approved antitumor agents, RKO. Type of assay: cell-based, human. Also on record: key: uncooperative (−); cooperative (+); synergistic (*); ambiguous (?). As to conditions: ISC-4 (1, 2, or 4 μM) plus therapy at putative EC12.5, EC25, EC50; compared to monoagent activity. As to the method: (§1) Cell lines are obtained from ATCC and cultured in ATCC-recommended media in a humidified incubator at 5% CO2 and 37° C. For cell viability assays, cells are seeded into 96-well black-walled plates at a concentration of 1×10^5 cells per mL in fresh media and in a volume of 100 μL per well. Cells are allowed to adhere overnight and are treated the next day as indicated. At endpoint, CellTiter-Glo (Promega) assays are performed according to the manufacturer's protocol, and the bioluminescent readout is recorded on an IVIS imaging system (Xenogen).
(§2) The SW480 and RKO human colon cancer cell lines are used for initial profiling based on their heterogeneous oncogenic genetic alterations.
(§3) Combinatorial activities of ISC-4 and each listed drug are compared to monoagent activities of each drug alone by cell viability assays and determined to be uncooperative (−), cooperative (+), synergistic (*), or ambiguous (?).

Another assay deals with SW480. Kind of assay: Cell viability assay of ISC-4 combined with approved antitumor agents, SW480. Type of assay: cell-based, human. Also on record: key: uncooperative (−); cooperative (+); synergistic (*); ambiguous (?). Particulars: ISC-4 (1, 2, or 4 μM) plus therapy at putative EC12.5, EC25, EC50; compared to monoagent activity. As to the method:
as §1, §2, §3

What is called EC25 is the concentration at which the effect reaches the 25% level. For orientation: EC50 means the concentration giving half of the maximal effect. Take `CS(=O)(=O)CCNCc1ccc(-c2ccc3ncnc(Nc4ccc(OCc5cccc(F)c5)c(Cl)c4)c3c2)o1` [Lapatinib]: in assay [1], the EC12.5 is 1.75 µM and the EC25 is 3500 nM. In addition, the EC50 in assay [1] (read-out: EC50) is 7 µM. For the same compound, the “Combinatorial effect of ISC-4 with the listed therapy, RKO” value (from here on “Combinatorial effect … RKO”) with RKO is recorded as “−”. The “Combinatorial effect of ISC-4 with the listed therapy, SW480” value (“Combinatorial effect … SW480” for short) in the assay with SW480 is “−”.
For Panitumumab, in assay [1], the EC12.5 was 0.75 µg/mL, the EC25 is 1.5 mg/L and the concentration for a half-maximal effect (EC50) was 3 mg/L. Besides, the “Combinatorial effect … RKO” value with RKO was “−”. Besides, the “Combinatorial effect … SW480” value with SW480 is given as “−”.
As for `COc1cc([C@@H]2c3cc4c(cc3[C@@H](O[C@@H]3O[C@@H]5CO[C@@H](C)O[C@H]5[C@H](O)[C@H]3O)[C@H]3COC(=O)[C@H]23)OCO4)cc(OC)c1O` [Etoposide], in assay [1], the EC12.5 was 1.25 µM and the 25% effect concentration (EC25) is 2500 nM. Further, the EC50 in assay [1] (read-out: EC50) was 5 µM. Besides, the “Combinatorial effect … RKO” value in the assay with RKO is recorded as “−”. For the same compound, in the assay on SW480, the “Combinatorial effect … SW480” value is recorded as “−”.
Consider `CC(=O)O[C@@]12CO[C@@H]1C[C@H](O)[C@@]1(C)C(=O)[C@H](O)C3=C(C)[C@@H](OC(=O)[C@H](O)[C@@H](NC(=O)OC(C)(C)C)c4ccccc4)C[C@@](O)([C@@H](OC(=O)c4ccccc4)[C@H]21)C3(C)C` [Docetaxel], for which, in assay [1], the EC12.5 is 2.5 µM and the 25% effect concentration (EC25) was 5000 nM. Moreover, the EC50 in assay [1] (read-out: EC50) was 10 µM. The “Combinatorial effect … RKO” value in the assay on RKO is recorded as “−”. The “Combinatorial effect … SW480” value in the assay on SW480 is listed as “−”.
As to `Nc1nc(Cl)nc2c1ncn2[C@H]1C[C@H](O)[C@@H](CO)O1` [Cladribine], in assay [1], the EC12.5 was 0.025 µM and the EC25 was 50 nM. Besides, the EC50 in assay [1] (read-out: EC50) was 0.1 µM. Also, the “Combinatorial effect … RKO” value with RKO was “−”. Moreover, the “Combinatorial effect … SW480” value with SW480 is reported as “−”.
Regarding `CNC(=O)c1cc(Oc2ccc(NC(=O)Nc3ccc(Cl)c(C(F)(F)F)c3)cc2)ccn1` [Sorafenib], in assay [1], the EC12.5 was 8 µM and the 25% effect concentration (EC25) is 16000 nM. Besides, in assay [1] (read-out: EC50), the EC50 is 32 µM. Also, the “Combinatorial effect … RKO” value in the assay with RKO is given as “+”. The “Combinatorial effect … SW480” value with SW480 was “+”.
Consider `CCc1c2c(nc3ccc(OC(=O)N4CCC(N5CCCCC5)CC4)cc13)-c1cc3c(c(=O)n1C2)COC(=O)[C@]3(O)CC` [Irinotecan], for which, in assay [1], the EC12.5 is 3.38 µM and the EC25 is 6750 nM. The EC50 in assay [1] (read-out: EC50) was 13 µM. The “Combinatorial effect … RKO” value in the assay on RKO is “−”. The “Combinatorial effect … SW480” value in the assay with SW480 is given as “−”.
`COc1cc2ncnc(Nc3ccc(F)c(Cl)c3)c2cc1OCCCN1CCOCC1` [Gefitinib]: in assay [1], the EC12.5 was 5.75 µM and the EC25 was 11500 nM. Besides, the “Combinatorial effect … RKO” value in the assay with RKO is given as “+”. Besides, in the assay on SW480, the “Combinatorial effect … SW480” value is reported as “+”.
Take `Nc1nc2[nH]cc(CCc3ccc(C(=O)N[C@@H](CCC(=O)O)C(=O)O)cc3)c2c(=O)[nH]1` [Pemetrexed]: in assay [1], the EC12.5 is 0.25 µg/mL, the EC25 was 0.5 mg/L and the EC50 was 1 mg/L. In addition, the “Combinatorial effect … RKO” value in the assay on RKO is recorded as “−”. Also, the “Combinatorial effect … SW480” value in the assay with SW480 is listed as “−”.
Turning to `CC(C)C[C@H](NC(=O)[C@H](Cc1ccccc1)NC(=O)c1cnccn1)B(O)O` [Bortezomib], the “Combinatorial effect … RKO” value in the assay on RKO is “+”. For the same compound, the “Combinatorial effect … SW480” value with SW480 was “?”.
In the case of `N.N.[Cl][Pt][Cl]` [Cisplatin], in assay [1], the EC12.5 was 1.125 µM and the EC25 was 2250 nM. Further, the EC50 in assay [1] (read-out: EC50) is 4.5 µM. The “Combinatorial effect … RKO” value with RKO was “−”. Besides, the “Combinatorial effect … SW480” value in the assay with SW480 is listed as “+”.
Consider `COc1cccc2c1C(=O)c1c(O)c3c(c(O)c1C2=O)C[C@@](O)(C(=O)CO)C[C@@H]3O[C@H]1C[C@H](N)[C@H](O)[C@H](C)O1` [Doxorubicin], for which, in assay [1], the EC12.5 is 16.25 µM and the 25% effect concentration (EC25) was 32500 nM. In addition, in assay [1] (read-out: EC50), the 50% effective concentration (EC50) was 65 µM. For the same compound, in the assay on RKO, the “Combinatorial effect … RKO” value is recorded as “?”. Besides, the “Combinatorial effect … SW480” value with SW480 is reported as “−”.
With `CC[C@]1(O)C[C@H]2CN(CCc3c([nH]c4ccccc34)[C@@](C(=O)OC)(c3cc4c(cc3OC)N(C=O)[C@H]3[C@@](O)(C(=O)OC)[C@H](OC(C)=O)[C@]5(CC)C=CCN6CC[C@]43[C@@H]65)C2)C1` [Vincristine], in assay [1], the EC12.5 was 3.5e-05 µM and the 25% effect concentration (EC25) entry is recorded as “.07 nM”. In assay [1] (read-out: EC50), the EC50 is 0.00014 µM. In addition, the “Combinatorial effect … RKO” value in the assay with RKO is “−”. In the assay on SW480, the “Combinatorial effect … SW480” value is reported as “−”.
Take `CC(=O)O[C@H]1C(=O)[C@@]2(C)[C@H]([C@H](OC(=O)c3ccccc3)[C@]3(O)C[C@H](OC(=O)[C@H](O)[C@@H](NC(=O)c4ccccc4)c4ccccc4)C(C)=C1C3(C)C)[C@]1(OC(C)=O)CO[C@@H]1C[C@@H]2O` [Paclitaxel]: in assay [1], the EC12.5 is 0.0025 µM and the 25% effect concentration (EC25) is on record as 5 nM. Moreover, in assay [1] (read-out: EC50), the EC50 was 0.01 µM. In addition, in the assay on RKO, the “Combinatorial effect … RKO” value is “−”. In addition, in the assay with SW480, the “Combinatorial effect … SW480” value is “−”.
As to `O=C1[O][Pt]2([NH][C@@H]3CCCC[C@H]3[NH]2)[O]C1=O` [Oxaliplatin], in assay [1], the EC12.5 is 0.075 µM and the EC25 is 150 nM. For the same compound, in assay [1] (read-out: EC50), the EC50 was 0.3 µM. Also, the “Combinatorial effect … RKO” value in the assay with RKO is “−”. Moreover, the “Combinatorial effect … SW480” value in the assay on SW480 is given as “−”.
Take `O=c1[nH]cc(F)c(=O)[nH]1` [5-FU, 5-fluorouracil]: in assay [1], the EC12.5 was 4.5 µM and the 25% effect concentration (EC25) is 9000 nM. The EC50 in assay [1] (read-out: EC50) was 18 µM. The “Combinatorial effect … RKO” value in the assay on RKO is “−”. For the same compound, the “Combinatorial effect … SW480” value with SW480 is “−”.
As to `Nc1ccn([C@@H]2O[C@H](CO)[C@@H](O)C2(F)F)c(=O)n1` [Gemcitabine], in assay [1], the EC12.5 was 0.5 µM and the EC25 is 1000 nM. In assay [1] (read-out: EC50), the concentration for a half-maximal effect (EC50) was 2 µM. Further, in the assay on RKO, the “Combinatorial effect … RKO” value is “+”. For the same compound, the “Combinatorial effect … SW480” value in the assay on SW480 was “−”.

The values are drawn from patent US20150328310A1, “METHODS AND COMPOSITIONS RELATING TO TREATMENT OF CANCER” (THE PENN STATE RESEARCH FOUNDATION, priority 2012, published 2015).
